According to the supplement of paper PMC8882468:

Test system: HCI-027 (organoid from a triple-negative breast cancer xenograft)
Test: CTG-3D luminescence at 96 h relative to day-0 seeding control (ratio to day 0); higher = more growth / less cytotoxicity; PDxO 3D drug screen, 96 h, CTG-3D normalised to day-0 seeding control.
Conditions: 0.005 µM; days in culture: 201

In order of rising “CTG-3D luminescence at 96 h” value:
1. C[C@H](NC(=O)CCC(F)(F)F)C(=O)N[C@@H]1C(=O)N(CCO)c2ncccc2-c2ccccc21 [crenigacestat]  1.26
2. O=C(c1ccc(F)c(F)c1Nc1ccc(I)cc1F)N1CC(O)([C@@H]2CCCCN2)C1 [cobimetinib]  1.63
3. Cc1cc(Nc2ncc(Cl)c(Nc3ccccc3S(=O)(=O)C(C)C)n2)c(OC(C)C)cc1C1CCNCC1 [ceritinib]  1.65
4. NC1(C(=O)N[C@@H](CCO)c2ccc(Cl)cc2)CCN(c2nc[nH]c3nccc2-3)CC1 [capivasertib]  1.88
5. C[C@@H]1COCCN1c1cc(C2([S@](C)(=N)=O)CC2)nc(-c2cc[nH]c3nccc2-3)n1 [ceralasertib]  1.99
6. CC(C)n1nc(-c2ccc3oc(N)nc3c2)c2c(N)ncnc21 [sapanisertib]  2.1
7. CCN1CCN(Cc2ccc(Nc3ncc(F)c(-c4cc(F)c5nc(C)n(C(C)C)c5c4)n3)nc2)CC1 [abemaciclib]  2.69
8. NC(=O)c1cccc2cn(-c3ccc([C@@H]4CCCNC4)cc3)nc12 [niraparib]  3.01
9. CS(=O)(=O)c1ccc(C(=O)Nc2ccc(Cl)c(-c3ccccn3)c2)c(Cl)c1 [vismodegib]  3.44

Same assay, conditions: 0.1 µM; days in culture: 176

In order of falling “CTG-3D luminescence at 96 h” value:
1. CCN1CCN(Cc2ccc(Nc3ncc(F)c(-c4cc(F)c5nc(C)n(C(C)C)c5c4)n3)nc2)CC1 [abemaciclib]  2.32
2. NC(=O)c1cccc2cn(-c3ccc([C@@H]4CCCNC4)cc3)nc12 [niraparib]  2.13
3. CS(=O)(=O)c1ccc(C(=O)Nc2ccc(Cl)c(-c3ccccn3)c2)c(Cl)c1 [vismodegib]  2.12
4. Cc1cc(Nc2ncc(Cl)c(Nc3ccccc3S(=O)(=O)C(C)C)n2)c(OC(C)C)cc1C1CCNCC1 [ceritinib]  1.68
5. C[C@@H]1COCCN1c1cc(C2([S@](C)(=N)=O)CC2)nc(-c2cc[nH]c3nccc2-3)n1 [ceralasertib]  1.47
6. O=C(c1ccc(F)c(F)c1Nc1ccc(I)cc1F)N1CC(O)([C@@H]2CCCCN2)C1 [cobimetinib]  1.13
7. NC1(C(=O)N[C@@H](CCO)c2ccc(Cl)cc2)CCN(c2nc[nH]c3nccc2-3)CC1 [capivasertib]  1.05
8. CC(C)n1nc(-c2ccc3oc(N)nc3c2)c2c(N)ncnc21 [sapanisertib]  0.7
9. C[C@H](NC(=O)CCC(F)(F)F)C(=O)N[C@@H]1C(=O)N(CCO)c2ncccc2-c2ccccc21 [crenigacestat]  0.198

Same assay, conditions: 0.1 µM; days in culture: 194

In order of rising “CTG-3D luminescence at 96 h” value:
1. C[C@H](NC(=O)CCC(F)(F)F)C(=O)N[C@@H]1C(=O)N(CCO)c2ncccc2-c2ccccc21 [crenigacestat]  0.251
2. CC(C)n1nc(-c2ccc3oc(N)nc3c2)c2c(N)ncnc21 [sapanisertib]  0.847
3. O=C(c1ccc(F)c(F)c1Nc1ccc(I)cc1F)N1CC(O)([C@@H]2CCCCN2)C1 [cobimetinib]  1.42
4. NC1(C(=O)N[C@@H](CCO)c2ccc(Cl)cc2)CCN(c2nc[nH]c3nccc2-3)CC1 [capivasertib]  1.57
5. C[C@@H]1COCCN1c1cc(C2([S@](C)(=N)=O)CC2)nc(-c2cc[nH]c3nccc2-3)n1 [ceralasertib]  1.62
6. Cc1cc(Nc2ncc(Cl)c(Nc3ccccc3S(=O)(=O)C(C)C)n2)c(OC(C)C)cc1C1CCNCC1 [ceritinib]  1.96
7. CCN1CCN(Cc2ccc(Nc3ncc(F)c(-c4cc(F)c5nc(C)n(C(C)C)c5c4)n3)nc2)CC1 [abemaciclib]  1.97
8. CS(=O)(=O)c1ccc(C(=O)Nc2ccc(Cl)c(-c3ccccn3)c2)c(Cl)c1 [vismodegib]  2.35
9. NC(=O)c1cccc2cn(-c3ccc([C@@H]4CCCNC4)cc3)nc12 [niraparib]  2.39

Same assay, conditions: 0.1 µM; days in culture: 201

In order of falling “CTG-3D luminescence at 96 h” value:
1. NC(=O)c1cccc2cn(-c3ccc([C@@H]4CCCNC4)cc3)nc12 [niraparib]  2.94
2. CS(=O)(=O)c1ccc(C(=O)Nc2ccc(Cl)c(-c3ccccn3)c2)c(Cl)c1 [vismodegib]  2.6
3. CCN1CCN(Cc2ccc(Nc3ncc(F)c(-c4cc(F)c5nc(C)n(C(C)C)c5c4)n3)nc2)CC1 [abemaciclib]  2.54
4. NC1(C(=O)N[C@@H](CCO)c2ccc(Cl)cc2)CCN(c2nc[nH]c3nccc2-3)CC1 [capivasertib]  2.17
5. C[C@@H]1COCCN1c1cc(C2([S@](C)(=N)=O)CC2)nc(-c2cc[nH]c3nccc2-3)n1 [ceralasertib]  2.1
6. O=C(c1ccc(F)c(F)c1Nc1ccc(I)cc1F)N1CC(O)([C@@H]2CCCCN2)C1 [cobimetinib]  1.68
7. Cc1cc(Nc2ncc(Cl)c(Nc3ccccc3S(=O)(=O)C(C)C)n2)c(OC(C)C)cc1C1CCNCC1 [ceritinib]  1.66
8. CC(C)n1nc(-c2ccc3oc(N)nc3c2)c2c(N)ncnc21 [sapanisertib]  0.956
9. C[C@H](NC(=O)CCC(F)(F)F)C(=O)N[C@@H]1C(=O)N(CCO)c2ncccc2-c2ccccc21 [crenigacestat]  0.249

Same assay, conditions: 1 µM; days in culture: 176

In order of rising “CTG-3D luminescence at 96 h” value:
1. C[C@H](NC(=O)CCC(F)(F)F)C(=O)N[C@@H]1C(=O)N(CCO)c2ncccc2-c2ccccc21 [crenigacestat]  0.179
2. CC(C)n1nc(-c2ccc3oc(N)nc3c2)c2c(N)ncnc21 [sapanisertib]  0.529
3. C[C@@H]1COCCN1c1cc(C2([S@](C)(=N)=O)CC2)nc(-c2cc[nH]c3nccc2-3)n1 [ceralasertib]  0.682
4. O=C(c1ccc(F)c(F)c1Nc1ccc(I)cc1F)N1CC(O)([C@@H]2CCCCN2)C1 [cobimetinib]  1.04
5. NC1(C(=O)N[C@@H](CCO)c2ccc(Cl)cc2)CCN(c2nc[nH]c3nccc2-3)CC1 [capivasertib]  1.12
6. CCN1CCN(Cc2ccc(Nc3ncc(F)c(-c4cc(F)c5nc(C)n(C(C)C)c5c4)n3)nc2)CC1 [abemaciclib]  1.53
7. NC(=O)c1cccc2cn(-c3ccc([C@@H]4CCCNC4)cc3)nc12 [niraparib]  1.7
8. Cc1cc(Nc2ncc(Cl)c(Nc3ccccc3S(=O)(=O)C(C)C)n2)c(OC(C)C)cc1C1CCNCC1 [ceritinib]  1.81
9. CS(=O)(=O)c1ccc(C(=O)Nc2ccc(Cl)c(-c3ccccn3)c2)c(Cl)c1 [vismodegib]  2.22

Same assay, conditions: 1 µM; days in culture: 194

In order of falling “CTG-3D luminescence at 96 h” value:
1. CS(=O)(=O)c1ccc(C(=O)Nc2ccc(Cl)c(-c3ccccn3)c2)c(Cl)c1 [vismodegib]  2.6
2. NC(=O)c1cccc2cn(-c3ccc([C@@H]4CCCNC4)cc3)nc12 [niraparib]  1.88
3. CCN1CCN(Cc2ccc(Nc3ncc(F)c(-c4cc(F)c5nc(C)n(C(C)C)c5c4)n3)nc2)CC1 [abemaciclib]  1.87
4. Cc1cc(Nc2ncc(Cl)c(Nc3ccccc3S(=O)(=O)C(C)C)n2)c(OC(C)C)cc1C1CCNCC1 [ceritinib]  1.8
5. O=C(c1ccc(F)c(F)c1Nc1ccc(I)cc1F)N1CC(O)([C@@H]2CCCCN2)C1 [cobimetinib]  1.56
6. NC1(C(=O)N[C@@H](CCO)c2ccc(Cl)cc2)CCN(c2nc[nH]c3nccc2-3)CC1 [capivasertib]  1.36
7. CC(C)n1nc(-c2ccc3oc(N)nc3c2)c2c(N)ncnc21 [sapanisertib]  0.824
8. C[C@@H]1COCCN1c1cc(C2([S@](C)(=N)=O)CC2)nc(-c2cc[nH]c3nccc2-3)n1 [ceralasertib]  0.748
9. C[C@H](NC(=O)CCC(F)(F)F)C(=O)N[C@@H]1C(=O)N(CCO)c2ncccc2-c2ccccc21 [crenigacestat]  0.276

Same assay, conditions: 1 µM; days in culture: 201

In order of falling “CTG-3D luminescence at 96 h” value:
1. CS(=O)(=O)c1ccc(C(=O)Nc2ccc(Cl)c(-c3ccccn3)c2)c(Cl)c1 [vismodegib]  3.36
2. CCN1CCN(Cc2ccc(Nc3ncc(F)c(-c4cc(F)c5nc(C)n(C(C)C)c5c4)n3)nc2)CC1 [abemaciclib]  2.15
3. NC1(C(=O)N[C@@H](CCO)c2ccc(Cl)cc2)CCN(c2nc[nH]c3nccc2-3)CC1 [capivasertib]  1.71
4. NC(=O)c1cccc2cn(-c3ccc([C@@H]4CCCNC4)cc3)nc12 [niraparib]  1.55
5. Cc1cc(Nc2ncc(Cl)c(Nc3ccccc3S(=O)(=O)C(C)C)n2)c(OC(C)C)cc1C1CCNCC1 [ceritinib]  1.47
6. O=C(c1ccc(F)c(F)c1Nc1ccc(I)cc1F)N1CC(O)([C@@H]2CCCCN2)C1 [cobimetinib]  0.995
7. CC(C)n1nc(-c2ccc3oc(N)nc3c2)c2c(N)ncnc21 [sapanisertib]  0.784
8. C[C@@H]1COCCN1c1cc(C2([S@](C)(=N)=O)CC2)nc(-c2cc[nH]c3nccc2-3)n1 [ceralasertib]  0.726
9. C[C@H](NC(=O)CCC(F)(F)F)C(=O)N[C@@H]1C(=O)N(CCO)c2ncccc2-c2ccccc21 [crenigacestat]  0.206

Same assay, conditions: 10 µM; days in culture: 176

In order of falling “CTG-3D luminescence at 96 h” value:
1. CS(=O)(=O)c1ccc(C(=O)Nc2ccc(Cl)c(-c3ccccn3)c2)c(Cl)c1 [vismodegib]  1.1
2. NC1(C(=O)N[C@@H](CCO)c2ccc(Cl)cc2)CCN(c2nc[nH]c3nccc2-3)CC1 [capivasertib]  0.758
3. CC(C)n1nc(-c2ccc3oc(N)nc3c2)c2c(N)ncnc21 [sapanisertib]  0.264
4. CCN1CCN(Cc2ccc(Nc3ncc(F)c(-c4cc(F)c5nc(C)n(C(C)C)c5c4)n3)nc2)CC1 [abemaciclib]  0.242
5. C[C@H](NC(=O)CCC(F)(F)F)C(=O)N[C@@H]1C(=O)N(CCO)c2ncccc2-c2ccccc21 [crenigacestat]  0.173
6. O=C(c1ccc(F)c(F)c1Nc1ccc(I)cc1F)N1CC(O)([C@@H]2CCCCN2)C1 [cobimetinib]  0.17
7. C[C@@H]1COCCN1c1cc(C2([S@](C)(=N)=O)CC2)nc(-c2cc[nH]c3nccc2-3)n1 [ceralasertib]  0.114
8. NC(=O)c1cccc2cn(-c3ccc([C@@H]4CCCNC4)cc3)nc12 [niraparib]  0.11
9. Cc1cc(Nc2ncc(Cl)c(Nc3ccccc3S(=O)(=O)C(C)C)n2)c(OC(C)C)cc1C1CCNCC1 [ceritinib]  0.00647
